pIC50: −log10 of the molar value.

For one experiment, the target named is ASK1 (Apoptosis Signal-Regulating Kinase 1) (Homo sapiens (Human), UniProt Q99683). Kind of experiment: ASK1 (Apoptosis Signal-Regulating Kinase 1) TR-FRET Kinase Assay (Biochemical IC50).
ASK1 (Apoptosis Signal-Regulating Kinase 1), sequence (Q99683 649-946): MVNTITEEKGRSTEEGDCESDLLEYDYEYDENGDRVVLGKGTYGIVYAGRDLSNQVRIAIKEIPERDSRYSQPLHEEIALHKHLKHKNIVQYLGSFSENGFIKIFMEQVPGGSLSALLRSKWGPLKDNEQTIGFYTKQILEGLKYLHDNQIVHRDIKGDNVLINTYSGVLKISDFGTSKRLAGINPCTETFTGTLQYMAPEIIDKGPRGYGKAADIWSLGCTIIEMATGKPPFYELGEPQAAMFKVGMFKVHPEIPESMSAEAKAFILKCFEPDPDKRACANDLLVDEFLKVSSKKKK
Details: not given
Regarding `C[C@@H](O)Cn1cnnc1-c1cccc(NC(=O)c2cc(-c3cccnc3)ccn2)c1` [Example 34, (R)-N-(3-(4-(2-hydroxypropyl)-4H-1,2,4-triazol-3-yl)phenyl)-3,4′-bipyridine-2′-carboxamide], the pIC50 is 6.71.

The experiment is the same for the next values; noted with them: TR-FRET, biotin-MBP substrate, 20 min pre-incubation, ATP added as 300 μM solution.
`CC(C)(O)c1ccc(-c2ccnc(C(=O)Nc3cccc(-c4nncn4C4CC4)c3)c2)cn1` [Example 165, N-(3-(4-cyclopropyl-4H-1,2,4-triazol-3-yl)phenyl)-6-(2-hydroxypropan-2-yl)-3,4′-bipyridine-2′-carboxamide] gave a pIC50 of 8.30.
On the same count and under the same terms, as for `CN(C)c1ccc(-c2ccnc(C(=O)Nc3cccc(-c4nncn4C4CC4)c3)c2)cn1` [Example 91, N-(3-(4-cyclopropyl-4H-1,2,4-triazol-3-yl)phenyl)-6-(dimethylamino)-3,4′-bipyridine-2′-carboxamide], the figure is 7.74.
The molecule `O=C(Nc1cccc(-c2nncn2C2CC2)c1)c1cc(-c2ccc(C3CC3)nc2)ccn1` [Example 50, 6-cyclopropyl-N-(3-(4-cyclopropyl-4H-1,2,4-triazol-3-yl)phenyl)-3,4′-bipyridine-2′-carboxamide] showed a pIC50 of 8.10.
Still for that read-out and setting: as for `O=C(Nc1cccc(-c2nncn2C2CC2)c1)c1cc(-n2cnc(C(F)(F)C(F)(F)F)c2)ccn1` [Example 198, N-(3-(4-cyclopropyl-4H-1,2,4-triazol-3-yl)phenyl)-4-(4-(perfluoroethyl)-1H-imidazol-1-yl)picolinamide], the figure is 7.72; as for `O=C(Nc1cccc(-c2nncn2C2CC2)n1)c1cc(-n2cnc(C3CC3)c2)c2ccccc2n1` [Example 226, 4-(4-cyclopropyl-1H-imidazol-1-yl)-N-(6-(4-cyclopropyl-4H-1,2,4-triazol-3-yl)pyridin-2-yl)quinoline-2-carboxamide], 7.80; as for `Cn1c(-c2ccnc(C(=O)Nc3cccc(-c4nncn4C4CC4)c3)c2)cnc1-c1ccccc1` [Example 116, N-(3-(4-cyclopropyl-4H-1,2,4-triazol-3-yl)phenyl)-4-(1-methyl-2-phenyl-1H-imidazol-5-yl)picolinamide], 7.64.
The same measure, in the same setting: under `CCc1ncc(-c2ccnc(C(=O)Nc3cccc(-c4nncn4C4CC4)c3)c2)cc1Cl` [Example 139, 5-chloro-N-(3-(4-cyclopropyl-4H-1,2,4-triazol-3-yl)phenyl)-6-ethyl-3,4′-bipyridine-2′-carboxamide] stands 7.80; under `Cc1ccncc1-c1ccnc(C(=O)Nc2cccc(-c3nncn3C3CC3)c2)c1` [Example 57, N-(3-(4-cyclopropyl-4H-1,2,4-triazol-3-yl)phenyl)-4-methyl-3,4′-bipyridine-2′-carboxamide], 6.61.
In turn, `CC(C)c1cn(-c2ccnc(C(=O)Nc3cccc(-c4nncn4C4CC4)n3)c2)cn1` [Example 167, N-(6-(4-cyclopropyl-4H-1,2,4-triazol-3-yl)pyridin-2-yl)-4-(4-isopropyl-1H-imidazol-1-yl)picolinamide] gave a pIC50 of 8.15.
Take `O=C(Nc1cccc(-c2nncn2C2CC2)c1)c1cc(-n2cnc3ccccc32)ccn1` [Example 37, 4-(1H-benzo[d]imidazol-1-yl)-N-(3-(4-cyclopropyl-4H-1,2,4-triazol-3-yl)phenyl)picolinamide]: the negative-log IC50 (pIC50) was 8.10.

The record behind these values is USRE48711E1, “Apoptosis signal-regulating kinase inhibitors” (Gilead Sciences, Inc., priority 2009, dated 2021).
